Experimental data as given in PMC8213057, “Targeting ALK2: An Open Science Approach to Developing Therapeutics for the Treatment of Diffuse Intrinsic Pontine Glioma” (Journal of Medicinal Chemistry, 2020).
Values joined by “and” are separate entries in the source; they are usually repeats but may differ in a detail not shown here. Equal entries are not always repeated.

Experiments:
ARK5/NUAK1 = target: T1, ARK5/NUAK1 (Homo sapiens, UniProt O60285); conditions: 1 μM; Run 1, Run 2
T1 sequence (O60285 1-661): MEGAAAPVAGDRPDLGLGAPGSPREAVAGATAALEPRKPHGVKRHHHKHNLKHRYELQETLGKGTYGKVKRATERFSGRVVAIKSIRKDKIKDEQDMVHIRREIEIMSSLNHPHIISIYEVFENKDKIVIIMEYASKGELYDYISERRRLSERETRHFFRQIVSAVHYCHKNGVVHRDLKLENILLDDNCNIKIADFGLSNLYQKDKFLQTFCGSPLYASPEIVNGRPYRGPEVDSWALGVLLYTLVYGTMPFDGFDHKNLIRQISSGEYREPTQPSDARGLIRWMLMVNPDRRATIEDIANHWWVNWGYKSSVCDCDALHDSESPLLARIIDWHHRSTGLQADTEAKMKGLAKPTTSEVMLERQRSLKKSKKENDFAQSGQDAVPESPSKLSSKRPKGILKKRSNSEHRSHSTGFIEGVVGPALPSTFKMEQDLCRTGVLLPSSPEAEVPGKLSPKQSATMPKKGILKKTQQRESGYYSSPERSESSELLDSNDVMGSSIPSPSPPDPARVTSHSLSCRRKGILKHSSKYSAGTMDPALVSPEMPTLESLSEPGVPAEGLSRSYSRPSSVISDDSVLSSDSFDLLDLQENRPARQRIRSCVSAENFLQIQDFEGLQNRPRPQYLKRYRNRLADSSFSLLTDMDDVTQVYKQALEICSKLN

MASTL = target: T2, MASTL (Homo sapiens, UniProt Q96GX5); assay: biochemical; conditions: read-out: % enzyme activity, 1 μM; Run 1, Run 2
T2 sequence (Q96GX5 1-879): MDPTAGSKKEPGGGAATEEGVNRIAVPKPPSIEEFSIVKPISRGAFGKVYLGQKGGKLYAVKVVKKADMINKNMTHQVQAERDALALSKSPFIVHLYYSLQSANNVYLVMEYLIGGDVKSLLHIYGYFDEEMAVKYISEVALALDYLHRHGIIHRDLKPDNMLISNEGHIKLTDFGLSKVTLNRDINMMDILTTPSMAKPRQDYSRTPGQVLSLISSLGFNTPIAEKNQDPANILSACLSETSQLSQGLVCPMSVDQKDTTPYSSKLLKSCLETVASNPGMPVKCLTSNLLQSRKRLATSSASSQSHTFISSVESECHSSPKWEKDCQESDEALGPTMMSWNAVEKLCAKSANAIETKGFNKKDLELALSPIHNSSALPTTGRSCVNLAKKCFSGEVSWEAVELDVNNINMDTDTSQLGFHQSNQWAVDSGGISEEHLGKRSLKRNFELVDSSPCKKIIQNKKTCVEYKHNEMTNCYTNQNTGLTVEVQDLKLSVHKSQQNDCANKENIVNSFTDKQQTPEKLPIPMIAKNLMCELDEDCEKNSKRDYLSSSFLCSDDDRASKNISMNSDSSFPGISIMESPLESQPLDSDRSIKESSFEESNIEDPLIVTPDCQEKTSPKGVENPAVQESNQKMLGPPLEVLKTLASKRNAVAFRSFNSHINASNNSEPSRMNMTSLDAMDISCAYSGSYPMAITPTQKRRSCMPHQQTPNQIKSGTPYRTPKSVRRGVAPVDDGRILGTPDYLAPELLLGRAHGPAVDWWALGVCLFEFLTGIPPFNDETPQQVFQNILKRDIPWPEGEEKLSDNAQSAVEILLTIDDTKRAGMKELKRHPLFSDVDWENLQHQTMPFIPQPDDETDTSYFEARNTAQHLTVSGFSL

TIE2/TEK = TIE2/TEK (Homo sapiens, UniProt Q02763); conditions: 1 μM; Run 1, Run 2
c-MET = c-MET (Homo sapiens, UniProt P08581); conditions: 1 μM; Run 1, Run 2
Sequence of c-MET (P08581 25-1390): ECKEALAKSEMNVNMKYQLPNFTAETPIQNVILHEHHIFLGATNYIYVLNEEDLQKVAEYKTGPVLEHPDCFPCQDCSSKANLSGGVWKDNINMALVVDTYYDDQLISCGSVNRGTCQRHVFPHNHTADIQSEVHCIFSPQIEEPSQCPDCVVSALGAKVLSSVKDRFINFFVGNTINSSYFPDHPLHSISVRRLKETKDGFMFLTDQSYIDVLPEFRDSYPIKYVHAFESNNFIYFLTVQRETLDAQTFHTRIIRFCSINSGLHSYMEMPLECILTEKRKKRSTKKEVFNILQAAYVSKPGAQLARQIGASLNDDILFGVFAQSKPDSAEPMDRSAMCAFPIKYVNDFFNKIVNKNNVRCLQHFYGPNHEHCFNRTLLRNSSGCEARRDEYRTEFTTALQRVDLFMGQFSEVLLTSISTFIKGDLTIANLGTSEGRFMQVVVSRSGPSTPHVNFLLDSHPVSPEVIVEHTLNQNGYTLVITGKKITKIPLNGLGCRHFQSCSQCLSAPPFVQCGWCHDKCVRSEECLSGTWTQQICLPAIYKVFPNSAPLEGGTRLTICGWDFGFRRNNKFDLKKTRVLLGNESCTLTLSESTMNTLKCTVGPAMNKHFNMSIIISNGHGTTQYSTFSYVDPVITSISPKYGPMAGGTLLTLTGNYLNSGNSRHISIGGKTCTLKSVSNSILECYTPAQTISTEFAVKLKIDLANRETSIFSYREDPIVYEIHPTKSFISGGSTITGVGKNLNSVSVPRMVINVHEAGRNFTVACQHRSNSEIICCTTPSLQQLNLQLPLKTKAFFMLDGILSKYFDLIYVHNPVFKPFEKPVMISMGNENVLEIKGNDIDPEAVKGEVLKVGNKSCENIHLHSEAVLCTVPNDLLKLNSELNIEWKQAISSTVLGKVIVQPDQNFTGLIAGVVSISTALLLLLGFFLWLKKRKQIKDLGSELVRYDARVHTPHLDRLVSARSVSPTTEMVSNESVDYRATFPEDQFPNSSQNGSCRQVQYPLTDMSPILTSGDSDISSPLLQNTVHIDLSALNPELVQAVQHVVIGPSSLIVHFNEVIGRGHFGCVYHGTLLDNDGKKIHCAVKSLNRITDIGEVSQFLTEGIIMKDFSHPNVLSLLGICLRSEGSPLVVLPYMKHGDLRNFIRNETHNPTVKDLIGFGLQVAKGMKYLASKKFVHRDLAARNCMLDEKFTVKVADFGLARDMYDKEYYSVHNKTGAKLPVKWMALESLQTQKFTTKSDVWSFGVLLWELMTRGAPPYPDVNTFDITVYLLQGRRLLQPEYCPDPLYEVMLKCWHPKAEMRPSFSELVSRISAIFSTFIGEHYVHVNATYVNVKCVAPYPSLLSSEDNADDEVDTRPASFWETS

ERN2/IRE2 = ERN2/IRE2 (Homo sapiens, UniProt Q76MJ5); conditions: 1 μM; Run 1, Run 2
Sequence of ERN2/IRE2 (Q76MJ5 35-926): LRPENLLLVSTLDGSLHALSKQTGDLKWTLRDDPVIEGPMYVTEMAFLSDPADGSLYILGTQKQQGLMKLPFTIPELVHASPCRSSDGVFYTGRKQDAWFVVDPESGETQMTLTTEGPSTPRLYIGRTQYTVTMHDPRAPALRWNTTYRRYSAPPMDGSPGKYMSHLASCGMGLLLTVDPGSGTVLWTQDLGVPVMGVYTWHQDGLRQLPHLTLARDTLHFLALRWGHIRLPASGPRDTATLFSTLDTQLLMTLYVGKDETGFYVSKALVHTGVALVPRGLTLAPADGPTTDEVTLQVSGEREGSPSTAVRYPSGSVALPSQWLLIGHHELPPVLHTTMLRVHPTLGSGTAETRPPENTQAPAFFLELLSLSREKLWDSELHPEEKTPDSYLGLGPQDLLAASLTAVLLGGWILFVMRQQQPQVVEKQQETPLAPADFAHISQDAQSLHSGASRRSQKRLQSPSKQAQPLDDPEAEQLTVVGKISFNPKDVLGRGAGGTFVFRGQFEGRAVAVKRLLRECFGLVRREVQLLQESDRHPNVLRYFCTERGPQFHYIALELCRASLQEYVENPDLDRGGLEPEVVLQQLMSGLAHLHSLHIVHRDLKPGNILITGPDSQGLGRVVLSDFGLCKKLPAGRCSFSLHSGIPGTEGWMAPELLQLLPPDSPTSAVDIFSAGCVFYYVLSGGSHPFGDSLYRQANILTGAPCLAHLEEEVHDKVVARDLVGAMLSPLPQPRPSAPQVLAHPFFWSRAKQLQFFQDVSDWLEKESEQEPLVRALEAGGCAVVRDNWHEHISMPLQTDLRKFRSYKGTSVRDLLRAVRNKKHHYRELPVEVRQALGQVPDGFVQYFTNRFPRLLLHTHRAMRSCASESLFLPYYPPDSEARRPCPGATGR

BRSK1 = target: T3, BRSK1 (Homo sapiens, UniProt Q8TDC3); conditions: 1 μM; Run 1, Run 2
T3 sequence (Q8TDC3 1-778): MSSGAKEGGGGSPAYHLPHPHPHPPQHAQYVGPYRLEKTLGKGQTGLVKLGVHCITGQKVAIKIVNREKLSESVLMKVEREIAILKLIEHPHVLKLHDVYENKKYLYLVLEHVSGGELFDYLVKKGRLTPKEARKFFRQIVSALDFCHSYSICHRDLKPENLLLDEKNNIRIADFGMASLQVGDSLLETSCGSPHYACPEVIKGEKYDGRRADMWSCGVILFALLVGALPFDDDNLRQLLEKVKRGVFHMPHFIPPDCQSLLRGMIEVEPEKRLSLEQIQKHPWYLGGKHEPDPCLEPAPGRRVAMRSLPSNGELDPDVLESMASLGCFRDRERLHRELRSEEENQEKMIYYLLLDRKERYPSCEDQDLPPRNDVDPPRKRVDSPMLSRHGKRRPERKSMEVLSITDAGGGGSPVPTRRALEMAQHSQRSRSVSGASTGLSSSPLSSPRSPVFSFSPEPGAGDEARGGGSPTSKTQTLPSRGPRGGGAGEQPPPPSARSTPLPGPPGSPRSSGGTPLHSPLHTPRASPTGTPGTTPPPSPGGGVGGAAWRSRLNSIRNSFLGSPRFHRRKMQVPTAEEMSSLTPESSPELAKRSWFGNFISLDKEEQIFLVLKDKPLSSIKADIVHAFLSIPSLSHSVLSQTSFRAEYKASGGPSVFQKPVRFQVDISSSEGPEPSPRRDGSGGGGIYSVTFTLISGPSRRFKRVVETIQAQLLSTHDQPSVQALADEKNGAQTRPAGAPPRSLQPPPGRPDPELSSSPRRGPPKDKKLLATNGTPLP

COT1/MAP3K8 = COT1/MAP3K8 (Homo sapiens, UniProt P41279); assay: biochemical; conditions: read-out: % enzyme activity, 1 μM; Run 1, Run 2
Sequence of COT1/MAP3K8 (P41279 whole entry): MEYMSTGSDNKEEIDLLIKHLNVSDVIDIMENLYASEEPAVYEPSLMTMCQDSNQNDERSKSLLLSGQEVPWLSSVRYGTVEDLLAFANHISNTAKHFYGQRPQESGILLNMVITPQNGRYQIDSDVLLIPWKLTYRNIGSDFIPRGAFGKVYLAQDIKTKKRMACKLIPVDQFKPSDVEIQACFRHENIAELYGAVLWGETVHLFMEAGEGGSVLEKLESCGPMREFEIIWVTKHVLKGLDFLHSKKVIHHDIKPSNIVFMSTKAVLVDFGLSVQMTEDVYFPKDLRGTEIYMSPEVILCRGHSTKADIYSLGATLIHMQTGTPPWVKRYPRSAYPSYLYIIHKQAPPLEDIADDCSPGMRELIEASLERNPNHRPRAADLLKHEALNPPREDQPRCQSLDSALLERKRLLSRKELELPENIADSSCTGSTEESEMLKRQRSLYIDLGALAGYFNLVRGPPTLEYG

PKCb1 = PKCb1 (Homo sapiens, UniProt P05771); assay: biochemical; conditions: read-out: % enzyme activity, 1 μM; Run 1, Run 2
Sequence of PKCb1 (P05771 whole entry): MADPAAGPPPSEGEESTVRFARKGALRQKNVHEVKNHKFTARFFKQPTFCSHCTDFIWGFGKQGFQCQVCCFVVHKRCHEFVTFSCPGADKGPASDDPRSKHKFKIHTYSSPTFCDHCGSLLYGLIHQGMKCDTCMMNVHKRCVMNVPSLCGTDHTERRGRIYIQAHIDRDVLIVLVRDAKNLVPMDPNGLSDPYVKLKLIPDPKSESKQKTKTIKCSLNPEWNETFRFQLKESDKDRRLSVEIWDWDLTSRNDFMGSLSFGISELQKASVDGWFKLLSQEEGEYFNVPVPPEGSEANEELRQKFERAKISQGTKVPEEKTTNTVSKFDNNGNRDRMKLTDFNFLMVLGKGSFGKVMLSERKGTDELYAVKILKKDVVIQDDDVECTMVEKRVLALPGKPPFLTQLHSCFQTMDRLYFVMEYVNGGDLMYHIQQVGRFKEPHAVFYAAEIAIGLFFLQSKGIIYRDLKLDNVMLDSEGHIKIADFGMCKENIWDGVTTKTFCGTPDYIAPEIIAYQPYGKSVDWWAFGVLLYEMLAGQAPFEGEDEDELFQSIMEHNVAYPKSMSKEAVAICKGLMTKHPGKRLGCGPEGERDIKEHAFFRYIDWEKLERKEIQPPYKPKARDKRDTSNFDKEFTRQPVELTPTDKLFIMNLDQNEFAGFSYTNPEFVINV

PKCb2 = PKCb2 (Homo sapiens, UniProt P05771); assay: biochemical; conditions: read-out: % enzyme activity, 1 μM; Run 1, Run 2
Sequence of PKCb2 (P05771 1-673 isoform P05771-2): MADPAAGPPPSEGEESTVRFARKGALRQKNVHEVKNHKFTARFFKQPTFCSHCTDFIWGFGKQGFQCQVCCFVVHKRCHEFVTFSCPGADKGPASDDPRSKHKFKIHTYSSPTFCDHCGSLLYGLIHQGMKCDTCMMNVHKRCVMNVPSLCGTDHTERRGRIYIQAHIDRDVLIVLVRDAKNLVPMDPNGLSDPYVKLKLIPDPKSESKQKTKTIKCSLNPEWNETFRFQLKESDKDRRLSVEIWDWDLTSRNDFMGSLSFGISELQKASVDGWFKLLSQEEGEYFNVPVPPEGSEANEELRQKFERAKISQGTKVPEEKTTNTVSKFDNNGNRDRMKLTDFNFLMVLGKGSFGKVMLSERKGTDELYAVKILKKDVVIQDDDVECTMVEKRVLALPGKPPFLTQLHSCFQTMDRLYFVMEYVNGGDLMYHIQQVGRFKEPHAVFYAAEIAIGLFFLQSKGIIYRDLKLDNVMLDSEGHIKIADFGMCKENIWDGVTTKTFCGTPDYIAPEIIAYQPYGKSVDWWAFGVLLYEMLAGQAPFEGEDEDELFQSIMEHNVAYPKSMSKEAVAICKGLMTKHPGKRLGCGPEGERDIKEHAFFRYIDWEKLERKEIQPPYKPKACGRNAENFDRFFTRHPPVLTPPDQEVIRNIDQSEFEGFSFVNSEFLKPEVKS

CAMK1d = CAMK1d (Homo sapiens, UniProt Q8IU85); conditions: 1 μM; Run 1, Run 2
Sequence of CAMK1d (Q8IU85 whole entry): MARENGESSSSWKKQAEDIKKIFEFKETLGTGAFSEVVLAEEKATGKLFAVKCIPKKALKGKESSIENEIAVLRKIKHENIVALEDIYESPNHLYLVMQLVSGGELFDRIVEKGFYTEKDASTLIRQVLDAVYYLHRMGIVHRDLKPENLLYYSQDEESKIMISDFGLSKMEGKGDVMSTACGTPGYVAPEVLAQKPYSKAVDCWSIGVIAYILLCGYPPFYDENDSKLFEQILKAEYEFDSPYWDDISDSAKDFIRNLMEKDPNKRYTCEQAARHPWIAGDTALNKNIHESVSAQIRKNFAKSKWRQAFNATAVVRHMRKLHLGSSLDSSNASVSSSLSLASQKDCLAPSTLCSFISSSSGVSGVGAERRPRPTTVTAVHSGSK

DYRK1/DYRK1A = DYRK1/DYRK1A (Homo sapiens, UniProt Q13627); assay: biochemical; conditions: read-out: % enzyme activity, 1 μM; Run 1, Run 2
CDK8/cyclin C = CDK8/cyclin C (Homo sapiens, UniProt P49336); assay: biochemical; conditions: read-out: % enzyme activity, 1 μM; Run 1, Run 2

`COc1cc(-c2cncc(-c3ccc(N4CCN(C)CC4)cc3)c2C)cc(F)c1C(N)=O` [Compound 26a, 2-Fluoro-6-methoxy-4-(4-methyl-5-(4-(4-methylpiperazin-1-yl)phenyl)pyridin-3-yl)benzamide] was tested, and the “% enzyme activity” value (ARK5/NUAK1) was 90.26%, the remaining activity at 1 µM (MASTL) was 99.3% and the “% enzyme activity” value (TIE2/TEK) was 92.85%. For the same compound, the “% enzyme activity” value (c-MET) was 98.28%, the % enzyme activity at 1 μM (DDR1) was 32.1% and 31.2% and the “% enzyme activity” value (ERN2/IRE2) was 97.32%. For the same compound, the “% enzyme activity” value (BRSK1) was 83.89%, the remaining activity at 1 µM (COT1/MAP3K8) was 88.7% and the remaining activity at 1 µM (PKCb1) was 85.5%. For the same compound, the remaining activity at 1 µM (PKCb2) was 107%, the “% enzyme activity” value (CAMK1d) was 98.20% and the remaining activity at 1 µM (DYRK1/DYRK1A) was 43.3%. It also gave a remaining activity at 1 µM (CDK8/cyclin C) of 84.6%.

For `COc1cc(-c2cncc(-c3ccc(N4C[C@@H](C)N(C)[C@@H](C)C4)cc3)c2C)cc(F)c1C(N)=O` [Compound 26c, 2-Fluoro-6-methoxy-4-(4-methyl-5-(4-((3R,5S)-3,4,5-trimethylpiperazin-1-yl)phenyl)pyridin-3-yl)benzamide], the “% enzyme activity” value (ARK5/NUAK1) was 93.75%, the remaining activity at 1 µM (MASTL) was 102% and the “% enzyme activity” value (TIE2/TEK) was 92.15%. For the same compound, the “% enzyme activity” value (c-MET) was 106.76%, the % enzyme activity at 1 μM (DDR1) was 57.2% and 55.5% and the “% enzyme activity” value (ERN2/IRE2) was 96.29%. For the same compound, the “% enzyme activity” value (BRSK1) was 78.18%, the remaining activity at 1 µM (COT1/MAP3K8) was 92.9% and the remaining activity at 1 µM (PKCb1) was 85.3%. The remaining activity at 1 µM (PKCb2) was 99.1%, the “% enzyme activity” value (CAMK1d) was 97.72% and the remaining activity at 1 µM (DYRK1/DYRK1A) was 62.4%. The remaining activity at 1 µM (CDK8/cyclin C) was 93.1%.
